The target of the series is Multidrug resistance-associated protein 1 (Homo sapiens, UniProt P33527). The series can be described thus: TP_TRANSPORTER: inhibition of BODIPY-ivermectin transport in HL60-MRP1 cells. Format: functional, cell-based.
Chain of Multidrug resistance-associated protein 1 (P33527 whole entry): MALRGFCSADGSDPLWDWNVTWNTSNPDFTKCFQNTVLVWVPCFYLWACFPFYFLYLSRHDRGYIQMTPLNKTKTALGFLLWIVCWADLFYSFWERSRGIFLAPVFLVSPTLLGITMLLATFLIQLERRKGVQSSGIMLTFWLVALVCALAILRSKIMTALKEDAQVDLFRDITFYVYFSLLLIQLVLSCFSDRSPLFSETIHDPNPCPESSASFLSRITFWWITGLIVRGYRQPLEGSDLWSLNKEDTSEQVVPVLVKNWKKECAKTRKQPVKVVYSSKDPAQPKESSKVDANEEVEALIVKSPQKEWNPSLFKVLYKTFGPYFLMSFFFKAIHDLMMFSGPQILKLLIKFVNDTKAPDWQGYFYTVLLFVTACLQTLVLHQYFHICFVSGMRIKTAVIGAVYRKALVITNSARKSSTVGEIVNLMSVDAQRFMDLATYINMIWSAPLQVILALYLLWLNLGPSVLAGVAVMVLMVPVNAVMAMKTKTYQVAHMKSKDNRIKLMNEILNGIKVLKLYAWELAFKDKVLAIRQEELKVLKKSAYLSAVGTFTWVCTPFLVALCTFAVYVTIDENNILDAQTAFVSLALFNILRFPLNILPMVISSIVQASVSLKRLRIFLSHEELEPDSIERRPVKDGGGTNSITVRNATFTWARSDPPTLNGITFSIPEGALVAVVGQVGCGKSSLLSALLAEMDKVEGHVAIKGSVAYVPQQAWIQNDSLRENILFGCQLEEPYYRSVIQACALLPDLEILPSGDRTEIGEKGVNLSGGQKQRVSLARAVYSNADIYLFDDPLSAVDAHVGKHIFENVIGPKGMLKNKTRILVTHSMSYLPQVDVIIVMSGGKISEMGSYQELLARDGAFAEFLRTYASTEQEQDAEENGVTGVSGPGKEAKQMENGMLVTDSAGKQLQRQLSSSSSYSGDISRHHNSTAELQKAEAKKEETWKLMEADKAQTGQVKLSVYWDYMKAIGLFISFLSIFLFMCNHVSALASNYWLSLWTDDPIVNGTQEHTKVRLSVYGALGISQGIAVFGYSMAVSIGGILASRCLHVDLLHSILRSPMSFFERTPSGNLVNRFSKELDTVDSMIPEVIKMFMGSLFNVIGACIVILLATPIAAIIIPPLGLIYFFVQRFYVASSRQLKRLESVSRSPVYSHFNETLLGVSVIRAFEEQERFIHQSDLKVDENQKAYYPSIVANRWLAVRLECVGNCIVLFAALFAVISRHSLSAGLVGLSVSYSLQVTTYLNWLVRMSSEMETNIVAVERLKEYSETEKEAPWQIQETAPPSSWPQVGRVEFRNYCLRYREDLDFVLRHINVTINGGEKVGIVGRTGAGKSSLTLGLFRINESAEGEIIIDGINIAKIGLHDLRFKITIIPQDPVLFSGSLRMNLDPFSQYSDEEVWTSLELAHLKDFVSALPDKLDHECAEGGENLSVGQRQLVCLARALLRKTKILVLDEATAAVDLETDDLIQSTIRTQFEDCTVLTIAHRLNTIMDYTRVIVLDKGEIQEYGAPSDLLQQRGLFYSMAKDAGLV

For the sequence IVERMECTIN, the Activity entry was “inhibitor [+]”.

(Values after ChEMBL document CHEMBL2074530, “Interaction of ivermectin with multidrug resistance proteins (MRP1, 2 and 3)” (Chem Biol Interact, 2006).)
